Measurements from PubChem BioAssay (NCI).
“And” between values parts separate entries of the source, which are not always exact repeats. Identical values can stand only once.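 Grown in 96-well plates, cells were treated for 48 hours with each compound at five concentrations. Insufficient inhibition: endpoint recorded as highest concentration tested. The concentration for 50% growth inhibition is given as GI50. TGI: total growth inhibition.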

Tests used:
Assay in all cases: growth of human tumour cells (NCI), 48 h
OVCAR-5 ovarian = tested on: OVCAR-5 ovarian
MOLT-4 leukemia = tested on: MOLT-4 leukemia
LOX IMVI melanoma = tested on: LOX IMVI melanoma
COLO 205 colon = tested on: COLO 205 colon
NCI/ADR-RES ovarian = tested on: NCI/ADR-RES ovarian
A498 renal = tested on: A498 renal
UACC-257 melanoma = tested on: UACC-257 melanoma
SK-MEL-2 melanoma = tested on: SK-MEL-2 melanoma
A549 NSCLC = tested on: A549 NSCLC
HOP-62 NSCLC = tested on: HOP-62 NSCLC

| Structure (SMILES) | GI50 (OVCAR-5 ovarian) | TGI (OVCAR-5 ovarian) | GI50 (MOLT-4 leukemia) | TGI (MOLT-4 leukemia) | GI50 (LOX IMVI melanoma) | TGI (LOX IMVI melanoma) | GI50 (COLO 205 colon) | TGI (COLO 205 colon) | GI50 (NCI/ADR-RES ovarian) | TGI (NCI/ADR-RES ovarian) | GI50 (A498 renal) | TGI (A498 renal) | GI50 (UACC-257 melanoma) | TGI (UACC-257 melanoma) | GI50 (SK-MEL-2 melanoma) | TGI (SK-MEL-2 melanoma) | GI50 (A549 NSCLC) | TGI (A549 NSCLC) | TGI (HOP-62 NSCLC) | GI50 (HOP-62 NSCLC) |
| --- | --- | --- | --- | --- | --- | --- | --- | --- | --- | --- | --- | --- | --- | --- | --- | --- | --- | --- | --- | --- |
| O=C1/C(=C/c2ccc([N+](=O)[O-])s2)Oc2ccccc21 | 1.78 µM | 3.53 µM | 0.654 µM | 3.23 µM | 0.434 µM | 1.64 µM | 1.26 µM | 2.66 µM | 1.74 µM | 9.25 µM | 3.22 µM | 18 µM | 1.26 µM | 2.78 µM | 0.945 µM | 3.04 µM | 1.66 µM | 3.88 µM |  |  |
| C[C@H]1COC2(c3ccccc3)CCC(=O)N12 (stereo partly specified) |  | > 100 µM |  |  |  | > 100 µM |  | > 100 µM |  |  |  | > 100 µM |  | > 100 µM |  | > 100 µM |  | > 100 µM | > 100 µM |  |
| O=C1OC(c2ccccc2)=N/C1=C\c1c(O)cc(O)cc1O |  | > 100 µM |  | > 100 µM |  | > 100 µM |  | > 100 µM |  |  |  | > 100 µM |  | > 100 µM |  | > 100 µM |  | > 100 µM |  |  |
| OCC(O)COc1c(Cl)ccc(Cl)c1Cl (stereo unspecified) |  | > 100 µM |  | > 100 µM |  | > 100 µM |  | > 100 µM |  |  |  | > 100 µM |  | > 100 µM |  | > 100 µM |  | > 100 µM | > 100 µM |  |
| O=C(CCc1ccccc1)On1nnc2ccccc2c1=O |  | > 100 µM |  | > 100 µM |  | > 100 µM |  | > 100 µM |  |  |  | > 100 µM |  | > 100 µM |  | > 100 µM |  | > 100 µM | > 100 µM |  |
| COc1ccc2[nH]c(-c3cccc(N(C)C)c3)cc(=O)c2c1 | 0.784 µM | > 100 µM |  | 2.71 µM and 1.56 µM | 0.599 µM |  | 0.379 µM |  | 0.487 µM |  |  |  | 0.361 µM | > 100 µM | 0.786 µM |  | 4.46 µM | > 100 µM | 94.2 µM | 0.335 µM and 0.844 µM |
| CC(=O)OCC(OC(C)=O)C(OC(C)=O)C(OC(C)=O)C(=O)CNn1c(-c2ccccc2)nc2ccc(Br)cc2c1=O (stereo unspecified) |  | > 100 µM |  | > 100 µM |  | > 100 µM |  | > 100 µM |  |  |  | > 100 µM |  | > 100 µM |  | > 100 µM |  | > 100 µM | > 100 µM |  |
| CC(C)CC(CNC(Cc1ccc(Cl)cc1)C(N)=O)NC(=O)C(Cc1cnc[nH]1)NC(=O)CNC(=O)C(NC(=O)C(C)NC(=O)C(Cc1c[nH]c2ccccc12)NC(=O)C(CCC(=O)O)NC(=O)C(N)Cc1ccccc1)C(C)C (stereo unspecified) |  |  |  | > 133 µM |  |  |  | > 133 µM |  |  |  | > 133 µM |  | > 133 µM |  | > 133 µM |  | > 133 µM | > 133 µM |  |
| Cc1[nH]c(=O)nc(CC(O)(c2ccccc2)c2ccccc2)c1-c1ccccc1 |  | > 100 µM |  | > 100 µM |  | > 100 µM |  | > 100 µM |  |  |  | > 100 µM |  | > 100 µM |  | > 100 µM |  | > 100 µM | > 100 µM |  |
| Fc1ccc(F)c(C2SCc3nc4ccccc4n32)c1 (stereo unspecified) |  | > 100 µM |  | 91.6 µM |  | > 100 µM |  | > 100 µM |  |  |  | > 100 µM |  | > 100 µM |  |  |  | > 100 µM | > 100 µM |  |
| CCc1ccccc1-n1c2nc(=O)n(C)c(=O)c-2nc2ccccc21 |  | 34.3 µM |  | 35.4 µM |  |  |  | 12.5 µM |  |  |  | 32.5 µM |  | 18.6 µM |  | 39.1 µM |  | 27.6 µM | > 100 µM |  |
